One series concerns the target T1, EphA4-LBD (Homo sapiens, UniProt P54764).
T1 construct: Met labeled EphA4-LBD (29-209) (20 μM) in absence (blue)
Kind of series: 2D [13C,1H] NMR chemical shift perturbation of 13Cε-Met labeled EphA4-LBD. The note with it: for Chemical shift perturbation to Met 115 (G-H loop): 13Cε-Met labeled EphA4-LBD; for Δδ Met 60 / Δδ Met 164: weight average 1H/13C chemical shift perturbation, 20 μM EphA4-LBD, 298 K. The format is binding. The procedure: (§1) Previously, we deployed the HTS by NMR (High-throughput Screening by Nuclear Magnetic Resonance) approach targeting the EphA4 ligand-binding domain to identify possible ligands from a tri-peptide positional scanning library consisting of ∼125,000 agents ([Wu et al., 2013]). Initial screen and subsequent structure-activity relationships studies lead to agent 123C4 (Table 1), with an affinity for the isolated EphA4 ligand-binding domain (LBD) of ∼400 nM by isothermal titration calorimetry (ITC) ([Wu et al., 2013], [2017]). In follow-up studies, we derived a new combinatorial library based on the critical N-terminal aliphatic amine of 123C4 (a common feature also of antagonistic peptides) ([Olson et al., 2016]; [Wu et al., 2013]) and exploited our previous experience with the fHTS by NMR ([Baggio et al., 2017]), we rapidly identified a new hit molecule ([Baggio et al., 2021]). We also developed an efficient strategy to anticipate if ligand binding would induce changes in EphA4 conformation that are more compatible with agonist versus antagonist binding ([Baggio et al., 2021]). This was accomplished by protein NMR using EphA4-LBD that is uniformly labeled with ^13C^ε-methionine ([Wu et al., 2017]). […] In particular, EphA4 residues Met 164, Met 60 (in the binding site), and Met 115 are located in the D-E loop, J-K loop, and G-H loop of the EphA4-LBD, respectively (Figures 1A-1C). […] For example, we reported that the 13mer antagonistic cyclic peptide APY-d3 ([Olson et al., 2016]) induces changes not only in binding site Met 164 and Met 60 resonances, but also in Met 115, located in the G-H loop, that is at the EphA4-LBD dimerization interface (Figure 1D). […] With these considerations in mind, ligand 150D4 was previously derived as described in our recent studies (Table 1; [Baggio et al., 2021]). […] Dissociation constant determination was obtained via isothermal titration calorimetry (ITC) measurements (Table 1, Figure 2). Similarly, selectivity studies were performed via ITC and ligand-binding domain constructs representing the two most closely related Eph domains, namely EphA3 and EphA2 (Table 1). […] These studies culminated in the identification of agonistic agents targeting the EphA4 ligand-binding domain.
NMR spectra were acquired on Bruker Avance III 700MHz spectrometer equipped with a TCI cryoprobe. All NMR data were processed and analyzed using TOPSPIN 3.6.1 (Bruker, Billerica, MA, USA). 2D-[^13C,^1H]-HSQC experiments were acquired with 20 μM proteins using 16 scans with 2,048 and 256 complex data points in the ^1H and […] dimensions, respectively, at 298 K. Chemical shift changes (Δδ) in the 2D [^13C, ^1H] spectra were calculated as weight average perturbations observed in the ^1H and ^13C dimensions using the following Equation: Δδ=1/2∗[(Δ^1H)^2+(0.3∗Δ^13C)^2]

In series [1] the target is T2, EphA4 ligand-binding domain (Homo sapiens, UniProt P54764). Kind of series: Isothermal titration calorimetry (ITC) vs EphA4-LBD. The settings on record: for N (ITC stoichiometry): ITC curve, Figure 2C/2D; for Kd: ITC, 25°C, 25 mM Tris pH 7.5, 150 mM NaCl, 1% DMSO, mean ± SE, n = 2. The method, then: as §1
Isothermal titration calorimetry measurements were performed using the Affinity ITC Autosampler from TA Instruments (New Castle, DE). The titrations were performed in a reverse fashion by titrating the protein into the ligand solution. […] Each titration was performed twice and individually using the ITCRun software, analyzed using NanoAnalyze software (TA Instruments, New Castle, DE) and subsequently exported into Microsoft Excel. […]
(In general: Isothermal titration calorimetry measures the heat released or taken up as one component is titrated into another.)

In series [2] the test system is motor neurons co-cultured with patient iAstrocytes (sALS, mutant SOD1). Kind of series: Patient iAstrocyte:motor neuron co-culture, motor neuron survival. The settings on record: 10 μM, sALS patient iAs (ALS1; second patient line Figure S3).
Method: Here, we tested the effectiveness of synthetic agonists by co-culturing patient iAs (2 sALS and 3 mtSOD1, Sup. Table 1) and mouse motor neurons in the presence of 123C4 (Figure 5A). Three days following co-culture surviving motor neurons were imaged (Figure 5B).
At the time of motor neuron seeding, the drug was removed via aspiration, and motor neurons in freshly prepared media were cultured on the iAs monolayer. In addition, 123C4 was also added at the time of co-culture as described in Figure 5A.
To accommodate a compound screen of this size, co-culture assays were adapted to a 384 well format.
Induced Astrocytes were generated by seeding a low quantity of NPCs into astrocyte medium (DMEM media containing 10% FBS and 0.2% N2) for five days. Following differentiation, iAstrocytes were lifted and seeded into a 96 well (10,000 cells per well) or 384 well (2500 cells per well) plate. Differentiations were repeated at separate passages and each differentiation was counted as an independent experiment.
Cells are sorted through a 100 μm tip with sheath pressure of 27. GFP + motor neurons were seeded in a 96 well plate (10,000 cells per well) or 384 well (1,000 cells per well) in triplicate for each condition. Co-cultures were imaged with InCell Analyzer 6000 automated microscopy system for up to six days. […]
A short description of series [3]: Aqueous solubility by 1H NMR. Format: physicochemical. The note with it: water; determined by 1H NMR.
The target in series [4] is ephrinA4 or ephrinA5 (Homo sapiens) (UniProt P52803). The settings on record: cited from earlier work.
Series [5] deals with T2, EphA4 ligand-binding domain. The settings on record: ref Bowden et al., 2009a, 2009b, read-out: Affinity of intact ephrin ligands for EphA4; cited from earlier work.

Like-named read-outs stand apart in the source and are kept apart here. Non-standard residues stand in square brackets, D forms with d. Residues, ends and D or L forms follow the SMILES beside them. *: point of attachment. Cyclohexanoyl(1S,3S-3-NH2) = N[C@H]1CCC[C@H](C(=O)*)C1; Trp(5-OH) = N[C@@H](Cc1c[nH]c2ccc(O)cc12)C(=O)O; NH(4-morpholinophenyl) = c1cc(N2CCOCC2)ccc1N*; Bip = N[C@@H](Cc1ccc(-c2ccccc2)cc1)C(=O)O; hArg = N=C(N)NCCCC[C@H](N)C(=O)O; X1 = c1cc(N2CCNCC2)ccc1N*

T2 sequence (P54764 30-209 limits assumed): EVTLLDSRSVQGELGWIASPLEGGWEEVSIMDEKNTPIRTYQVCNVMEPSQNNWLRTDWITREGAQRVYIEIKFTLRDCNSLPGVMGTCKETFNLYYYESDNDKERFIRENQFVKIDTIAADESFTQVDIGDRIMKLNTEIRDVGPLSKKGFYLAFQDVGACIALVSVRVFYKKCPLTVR
T1 sequence (P54764 29-209): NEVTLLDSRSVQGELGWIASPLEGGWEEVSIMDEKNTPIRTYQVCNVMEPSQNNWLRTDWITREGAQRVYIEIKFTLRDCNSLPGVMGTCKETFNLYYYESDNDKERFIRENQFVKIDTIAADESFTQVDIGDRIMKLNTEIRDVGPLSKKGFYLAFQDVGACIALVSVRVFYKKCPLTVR

Take `C[C@@H](NC(=O)[C@H](CCCCNC(=N)N)NC(=O)[C@H](Cc1ccc(-c2ccccc2)cc1)NC(=O)[C@H](Cc1c[nH]c2ccc(O)cc12)NC(=O)[C@H]1CCC[C@H](N)C1)C(=O)Nc1ccc(N2CCOCC2)cc1` [150E7, (1S,3S)-N-((S)-1-(((S)-3-([1,1'-biphenyl]-4-yl)-1-(((S)-6-guanidino-1-(((R)-1-((4-morpholinophenyl)amino)-1-oxopropan-2-yl)amino)-1-oxohexan-2-yl)amino)-1-oxopropan-2-yl)amino)-3-(5-hydroxy-1H-indol-3-yl)-1-oxopropan-2-yl)-3-aminocyclohexane-1-carboxamide] ({Cyclohexanoyl(1S,3S-3-NH2)}-[Trp(5-OH)][Bip][hArg][dA]-{NH(4-morpholinophenyl)}): on EphA4-LBD, the “Chemical shift perturbation to Met 115 (G-H loop)” value is recorded as “do not alter loop G-H”, the “Δδ Met 60” value is “+++ (+++ > 0.1 ppm)” and the “Δδ Met 164” value was “++ (0.2 ppm < ++ < 0.25 ppm)”. In addition, in series [1], the “N (ITC stoichiometry)” value is reported as 0.99 and the Kd was determined as 129 ± 4.5 nM. Also, in series [2], the Motor neuron survival entry is recorded as “effective at preventing motor neuron death”. In addition, the solubility (in general, the concentration that dissolves in the medium under given conditions) in series [3] is greater than 50 mM.

Consider “EphA4 ligand-binding domain (from UniProt P54764)”, for which the Kd in series [4] was 0.36 µM.

For the molecule `N=C(N)NCCCC[C@H](NC(=O)[C@H](Cc1ccc(-c2ccccc2)cc1)NC(=O)[C@H](Cc1c[nH]c2ccc(O)cc12)NC(=O)[C@H]1CCC[C@H](N)C1)C(=O)NCC(=O)Nc1ccc(N2CCNCC2)cc1` [150E8, (1S,3S)-N-((S)-1-(((S)-3-([1,1'-biphenyl]-4-yl)-1-(((S)-6-guanidino-1-oxo-1-((2-oxo-2-((4-(piperazin-1-yl)phenyl)amino)ethyl)amino)hexan-2-yl)amino)-1-oxopropan-2-yl)amino)-3-(5-hydroxy-1H-indol-3-yl)-1-oxopropan-2-yl)-3-aminocyclohexane-1-carboxamide] ({Cyclohexanoyl(1S,3S-3-NH2)}-[Trp(5-OH)][Bip][hArg]G-X1), at EphA4-LBD, the “Chemical shift perturbation to Met 115 (G-H loop)” value is “do not alter loop G-H”, the “Δδ Met 60” value was “++ (0.05 ppm < ++ < 0.1 ppm)” and the “Δδ Met 164” value is given as “++++ (++++ > 0.3 ppm)”. For the same molecule, in series [1], the “N (ITC stoichiometry)” value was found to be 1.01 and the Kd is 94.3 ± 4.4 nM. In series [2], the Motor neuron survival result was “effective at preventing motor neuron death”. For the same molecule, the solubility in series [3] is greater than 50 mM.

B1: ephrinA5: intact ephrin ligand of EphA4 (protein, UniProt P52803 21-203, looked up)
Ephrin-A5: QDPGSKAVADRYAVYWNSSNPRFQRGDYHIDVCINDYLDVFCPHYEDSVPEDKTERYVLYMVNFDGYSACDHTSKGFKRWECNRPHSPNGPLKFSEKFQLFTPFSLGFEFRPGREYFYISSAIPDNGRRSCLKLKVFVRPTNSCMKTIGVHDRVFDVNDKVENSLEPADDTVHESAEPSRGEN
Turning to B1, the Kd in series [5] was roughly 0.36 µM.

B2: ephrinA4: intact ephrin ligand of EphA4 (protein, UniProt P52798 26-170, looked up)
Ephrin-A4: LRHVVYWNSSNPRLLRGDAVVELGLNDYLDIVCPHYEGPGPPEGPETFALYMVDWPGYESCQAEGPRAYKRWVCSLPFGHVQFSEKIQRFTPFSLGFEFLPGETYYYISVPTPESSGQCLRLQVSVCCKERKSESAHPVGSPGES
Turning to B2, the Kd in series [5] was roughly 0.36 µM.

These data come from publication PMC9404653, “EphA4 targeting agents protect motor neurons from cell death induced by amyotrophic lateral sclerosis -astrocytes” (iScience, 2022).
